Experimental data published in the NIST ThermoML archive (doi:10.1016/j.jct.2008.01.008).

Assay: xn = mol fraction of the nth substance listed
Details: 298.15 K, 101 kPa, Liquid; for viscosity: Capillary tube (Ostwald / Ubbelohde) method; for speed of sound: Sing-around technique in a fixed-path interferometer

COCC(C)OCC(C)OC (stereo not given) [2-methoxy-1-(2-methoxy-1-methylethoxy)propane] + CCCCCCCO
Details | mass density [kg/m3] | speed of sound [m/s] | viscosity [mPa·s]
x1 = 0.0148 | – | – | 5.604
x1 = 0.0292 | – | – | 5.348
x1 = 0.0609 | 825.134 | 1317.8 | –
x1 = 0.0718 | – | – | 4.664
x1 = 0.1164 | 830.66 | 1309.7 | –
x1 = 0.1196 | – | – | 4.033
x1 = 0.157 | 834.553 | 1303 | –
x1 = 0.1575 | – | – | 3.611
x1 = 0.1902 | – | – | 3.294
x1 = 0.2117 | 839.681 | 1295.5 | –
x1 = 0.2555 | – | – | 3.016
x1 = 0.259 | 843.957 | 1289.2 | –
x1 = 0.2613 | – | – | 2.766
x1 = 0.3119 | – | – | 2.468
x1 = 0.3132 | 848.706 | 1281.7 | –
x1 = 0.3539 | 852.157 | 1276.4 | –
x1 = 0.3616 | – | – | 2.235
x1 = 0.406 | 856.458 | 1270.5 | –
x1 = 0.4129 | – | – | 2.031
x1 = 0.4366 | – | – | 1.949
x1 = 0.4532 | – | – | 1.895
x1 = 0.4533 | 860.298 | 1264.9 | –
x1 = 0.5056 | 864.403 | 1258.8 | –
x1 = 0.511 | – | – | 1.736
x1 = 0.5326 | – | – | 1.673
x1 = 0.552 | 867.948 | 1253.6 | –
x1 = 0.5897 | – | – | 1.543
x1 = 0.5935 | 871.045 | 1249.2 | –
x1 = 0.6316 | 873.865 | 1245.4 | –
x1 = 0.6424 | – | – | 1.432
x1 = 0.7111 | – | – | 1.309
x1 = 0.7137 | 879.729 | 1236.2 | –
x1 = 0.7457 | – | – | 1.25
x1 = 0.7666 | 883.415 | 1231 | –
x1 = 0.7977 | – | – | 1.178
x1 = 0.8059 | 886.098 | 1226.6 | –
x1 = 0.8495 | 889.001 | 1222.1 | –
x1 = 0.8531 | – | – | 1.117
x1 = 0.8927 | – | – | 1.079
x1 = 0.9026 | 892.554 | 1216.1 | –
x1 = 0.9293 | 894.156 | 1213 | –
x1 = 0.9421 | – | – | 1.041
x1 = 0.9527 | 895.635 | 1210.7 | –
x1 = 0.9678 | – | – | 1.02
x1 = 0.9935 | – | – | 0.9994

COCC(C)OCC(C)OC (stereo not given) [2-methoxy-1-(2-methoxy-1-methylethoxy)propane] + CO
Details | mass density [kg/m3] | speed of sound [m/s] | viscosity [mPa·s]
x1 = 0.0146 | – | – | 0.567
x1 = 0.023 | 799.44 | 1116.2 | –
x1 = 0.0467 | – | – | 0.6092
x1 = 0.0705 | 820.052 | 1138.4 | –
x1 = 0.0738 | – | – | 0.644
x1 = 0.1106 | – | – | 0.6831
x1 = 0.1312 | 838.725 | 1158.2 | –
x1 = 0.1422 | – | – | 0.7112
x1 = 0.1632 | 846.233 | 1166.2 | –
x1 = 0.1646 | – | – | 0.7327
x1 = 0.1725 | – | – | 0.7378
x1 = 0.1988 | – | – | 0.7576
x1 = 0.2058 | – | – | 0.7648
x1 = 0.2094 | 855.089 | 1175.4 | –
x1 = 0.2514 | 861.6 | 1182 | –
x1 = 0.2621 | – | – | 0.8031
x1 = 0.3018 | 867.961 | 1188.1 | –
x1 = 0.3128 | – | – | 0.8321
x1 = 0.3583 | – | – | 0.8527
x1 = 0.3598 | 873.908 | 1193.9 | –
x1 = 0.4 | – | – | 0.871
x1 = 0.4036 | 877.603 | 1197.3 | –
x1 = 0.4549 | 881.296 | 1200.3 | 0.8941
x1 = 0.5022 | 884.189 | 1202.6 | –
x1 = 0.5123 | – | – | 0.9106
x1 = 0.5449 | 886.449 | 1204.3 | –
x1 = 0.5474 | – | – | 0.9206
x1 = 0.6169 | 889.615 | 1206.2 | –
x1 = 0.6261 | – | – | 0.9387
x1 = 0.6494 | 890.83 | 1206.8 | –
x1 = 0.6802 | – | – | 0.9504
x1 = 0.7083 | 892.78 | 1207.7 | –
x1 = 0.7319 | – | – | 0.9598
x1 = 0.7557 | – | – | 0.9634
x1 = 0.756 | 894.087 | 1207.9 | –
x1 = 0.7919 | – | – | 0.9682
x1 = 0.8114 | 895.425 | 1207.8 | –
x1 = 0.8537 | 896.298 | 1207.6 | –
x1 = 0.8565 | – | – | 0.9775
x1 = 0.9047 | 897.217 | 1207 | –
x1 = 0.9185 | – | – | 0.9855
x1 = 0.9327 | – | – | 0.9862
x1 = 0.9364 | 897.708 | 1206.2 | –
x1 = 0.9511 | 897.931 | 1206.2 | –
x1 = 0.9572 | – | – | 0.9881
x1 = 0.974 | – | – | 0.9898

COCC(C)OCC(C)OC (stereo not given) [2-methoxy-1-(2-methoxy-1-methylethoxy)propane] + CCCCCO
Details | mass density [kg/m3] | speed of sound [m/s] | viscosity [mPa·s]
x1 = 0.0005 | – | – | 3.49
x1 = 0.0143 | 813.241 | 1274.5 | –
x1 = 0.0225 | – | – | 3.246
x1 = 0.0441 | 817.684 | 1272 | –
x1 = 0.0499 | – | – | 2.986
x1 = 0.0656 | – | – | 2.851
x1 = 0.0946 | – | – | 2.627
x1 = 0.1045 | 826.045 | 1266.6 | –
x1 = 0.1367 | – | – | 2.357
x1 = 0.1523 | 832.101 | 1262.4 | –
x1 = 0.194 | – | – | 2.078
x1 = 0.2149 | 839.509 | 1257.2 | –
x1 = 0.2414 | – | – | 1.891
x1 = 0.2431 | 842.645 | 1255 | –
x1 = 0.2954 | – | – | 1.728
x1 = 0.2986 | 848.553 | 1250.7 | –
x1 = 0.3419 | 852.922 | 1247.5 | –
x1 = 0.3597 | – | – | 1.574
x1 = 0.374 | 856.019 | 1245 | –
x1 = 0.4018 | 858.624 | 1243.2 | –
x1 = 0.4152 | – | – | 1.464
x1 = 0.4303 | – | – | 1.436
x1 = 0.4549 | 863.364 | 1239.5 | –
x1 = 0.468 | – | – | 1.38
x1 = 0.4941 | – | – | 1.345
x1 = 0.5038 | 867.504 | 1236.6 | –
x1 = 0.5334 | 869.911 | 1234.7 | –
x1 = 0.5552 | – | – | 1.274
x1 = 0.591 | – | – | 1.23
x1 = 0.6034 | 875.242 | 1230.3 | –
x1 = 0.6553 | 878.913 | 1226.5 | –
x1 = 0.6625 | – | – | 1.169
x1 = 0.6968 | 881.667 | 1224 | –
x1 = 0.709 | – | – | 1.137
x1 = 0.7445 | – | – | 1.112
x1 = 0.7505 | 885.025 | 1221.2 | –
x1 = 0.796 | – | – | 1.079
x1 = 0.7962 | 887.727 | 1218.6 | –
x1 = 0.8509 | 890.774 | 1215.1 | –
x1 = 0.8555 | – | – | 1.054
x1 = 0.9071 | 893.759 | 1211 | –
x1 = 0.9258 | – | – | 1.02
x1 = 0.9476 | 895.868 | 1208.7 | –
x1 = 0.96 | 896.501 | 1207.8 | –
x1 = 0.9803 | – | – | 0.9997
